For one assay, the target named is JAK2 (Homo sapiens (Human), UniProt O60674). In words: Biochemical JAK kinase assay (LanthaScreen), JAK2. The following applies: for Ki: read-out: JAK2 pKi (converted). The essentials: (§1)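 LanthaScreen format: phospho-STAT1 (pTyr701) detected with 2 nM Tb antibody after 10 mM EDTA quench. Kinase step used Km-level ATP and 200 nM STAT1 peptide, 1 h at ambient after 1 h pre-incubation. Inhibition fitted to IC50, reported as pKi.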

Assay [1] has as its system IL-13 induced STAT6 phosphorylation in BEAS-2B human lung epithelial cells. In words: Cellular JAKI potency assay (BEAS-2B). In kind it is cell-based. The following applies: BEAS-2B cells; for IC50: Homo sapiens, BEAS-2B, read-out: BEAS2B pIC50 (converted). The essentials: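 AlphaLISA SureFire detection of Tyr641 pSTAT6 in lysates gave IC50s (4-parameter fit, expressed as pIC50). Cells: human BEAS-2B, exposed 1 h at 37 °C to compound dose series at 0.1% DMSO, then 30 min to IL-13 added at 80 ng/mL in HEPES-buffered HBSS with BSA.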

The target of another assay is JAK1 (Homo sapiens (Human), UniProt P23458). In words: Biochemical JAK kinase assay (LanthaScreen), JAK1. The following applies: for Ki: read-out: JAK1 pKi (converted). The essentials:
as §1

JAK2, sequence (O60674 whole entry): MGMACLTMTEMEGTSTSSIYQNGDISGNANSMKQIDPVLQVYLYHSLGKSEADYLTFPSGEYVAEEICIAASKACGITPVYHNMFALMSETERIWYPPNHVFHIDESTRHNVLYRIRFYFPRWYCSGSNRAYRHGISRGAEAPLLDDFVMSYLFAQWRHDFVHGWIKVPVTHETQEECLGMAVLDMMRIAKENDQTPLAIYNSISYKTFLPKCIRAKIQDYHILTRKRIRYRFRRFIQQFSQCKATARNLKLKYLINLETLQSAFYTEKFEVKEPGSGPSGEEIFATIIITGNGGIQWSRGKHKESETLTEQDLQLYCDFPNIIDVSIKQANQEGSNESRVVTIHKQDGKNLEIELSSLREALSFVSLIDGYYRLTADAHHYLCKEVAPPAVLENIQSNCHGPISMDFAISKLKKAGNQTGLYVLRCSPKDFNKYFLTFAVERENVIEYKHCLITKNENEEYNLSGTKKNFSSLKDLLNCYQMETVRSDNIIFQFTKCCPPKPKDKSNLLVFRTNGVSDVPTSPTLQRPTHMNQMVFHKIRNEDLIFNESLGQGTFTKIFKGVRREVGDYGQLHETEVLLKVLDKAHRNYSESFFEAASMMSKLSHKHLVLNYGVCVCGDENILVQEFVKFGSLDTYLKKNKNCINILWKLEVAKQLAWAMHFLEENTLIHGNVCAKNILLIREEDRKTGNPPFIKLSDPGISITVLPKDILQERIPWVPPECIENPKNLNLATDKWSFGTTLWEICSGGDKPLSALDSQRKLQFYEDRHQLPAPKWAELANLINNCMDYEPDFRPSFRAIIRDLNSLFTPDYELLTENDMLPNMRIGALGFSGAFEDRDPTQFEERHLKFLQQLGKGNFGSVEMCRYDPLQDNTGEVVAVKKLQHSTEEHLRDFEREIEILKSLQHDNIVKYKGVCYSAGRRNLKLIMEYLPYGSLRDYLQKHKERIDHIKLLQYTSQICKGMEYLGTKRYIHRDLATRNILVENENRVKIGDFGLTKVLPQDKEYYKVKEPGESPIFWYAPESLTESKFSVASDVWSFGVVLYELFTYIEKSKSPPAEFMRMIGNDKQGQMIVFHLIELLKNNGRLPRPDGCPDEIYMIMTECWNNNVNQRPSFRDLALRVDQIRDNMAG
JAK1, sequence (P23458 whole entry): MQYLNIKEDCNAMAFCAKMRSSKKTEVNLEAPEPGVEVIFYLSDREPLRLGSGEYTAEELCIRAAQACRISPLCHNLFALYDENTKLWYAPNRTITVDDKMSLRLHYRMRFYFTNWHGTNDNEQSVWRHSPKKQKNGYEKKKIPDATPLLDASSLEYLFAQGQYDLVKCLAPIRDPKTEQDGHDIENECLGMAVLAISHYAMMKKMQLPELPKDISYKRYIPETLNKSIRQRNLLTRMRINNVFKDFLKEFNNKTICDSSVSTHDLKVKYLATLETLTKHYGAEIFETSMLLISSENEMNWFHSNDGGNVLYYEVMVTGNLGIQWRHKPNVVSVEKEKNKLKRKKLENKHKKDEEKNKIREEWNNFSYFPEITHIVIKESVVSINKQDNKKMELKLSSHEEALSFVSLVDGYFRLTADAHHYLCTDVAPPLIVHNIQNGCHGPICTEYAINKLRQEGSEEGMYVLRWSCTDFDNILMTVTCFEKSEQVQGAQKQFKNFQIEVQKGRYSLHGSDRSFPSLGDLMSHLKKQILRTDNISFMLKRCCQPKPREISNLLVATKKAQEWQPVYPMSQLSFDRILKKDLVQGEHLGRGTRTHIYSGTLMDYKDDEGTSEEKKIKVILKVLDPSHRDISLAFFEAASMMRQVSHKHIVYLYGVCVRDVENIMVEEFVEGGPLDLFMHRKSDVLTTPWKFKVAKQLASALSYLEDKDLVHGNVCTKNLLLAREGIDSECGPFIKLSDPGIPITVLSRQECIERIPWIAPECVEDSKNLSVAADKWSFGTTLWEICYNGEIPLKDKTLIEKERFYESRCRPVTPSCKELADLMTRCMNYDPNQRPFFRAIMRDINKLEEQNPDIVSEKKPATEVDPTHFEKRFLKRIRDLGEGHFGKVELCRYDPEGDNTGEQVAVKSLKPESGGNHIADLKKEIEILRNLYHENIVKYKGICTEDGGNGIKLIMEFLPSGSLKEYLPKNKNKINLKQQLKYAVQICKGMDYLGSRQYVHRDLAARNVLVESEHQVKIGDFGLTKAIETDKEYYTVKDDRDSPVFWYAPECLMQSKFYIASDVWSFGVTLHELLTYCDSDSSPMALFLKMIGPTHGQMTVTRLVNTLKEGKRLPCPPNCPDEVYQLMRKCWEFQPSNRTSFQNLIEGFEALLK

Consider `CCc1cc(O)ccc1-c1ccc2c(-c3nc(C4=C[C@H](CO)N(Cc5cnoc5)C4)c[nH]3)n[nH]c2c1F` [Example 355], for which the Ki on JAK2 and at JAK1 was 0.1 to 1 nM in each case. In assay [1], the IC50 was 31.6 to 100 nM.
As for `CCc1cc(O)ccc1-c1ccc2c(-c3nc(C4=CCNC(C(C)(C)C)C4)c[nH]3)n[nH]c2c1` (stereo not drawn) [Example 356], the Ki at JAK2 and at JAK1 was 0.1 to 1 nM each time. Also, the IC50 in assay [1] was 31.6 to 100 nM.
Consider `Oc1ccc(-c2ccc3c(-c4nc(C5=CCNC5)c[nH]4)n[nH]c3c2F)c(CC(F)(F)F)c1` [Example 357], for which the Ki on JAK2 and on JAK1 was 0.1 to 1 nM each time. Besides, the IC50 in assay [1] is 31.6 to 100 nM.
As for `CCc1cc(O)ccc1-c1ccc2c(-c3nc(C4=CC5CNCCN5CC4)c[nH]3)n[nH]c2c1F` (stereo not drawn) [Example 358], the Ki on JAK2 and at JAK1 was 0.1 to 1 nM each time. The IC50 in assay [1] is 31.6 to 100 nM.
Consider `CCc1cc(O)ccc1-c1ccc2c(-c3nc(C4=CCN([C@H]5CC[C@@](O)(C(F)(F)F)CC5)C4)c[nH]3)n[nH]c2c1F` [Example 359], for which the Ki is 0.1 to 1 nM at JAK2 and 1 to 10 nM at JAK1. Moreover, the IC50 in assay [1] was 31.6 to 100 nM.
As to `CCc1cc(O)ccc1-c1ccc2c(-c3nc(C4=C[C@H](CC(=O)N5CCCC5)NC4)c[nH]3)n[nH]c2c1F` [Example 360], the “JAK2 pKi” value at JAK2 is given as “A (A represents a pKi value ≥10 (Ki≤0.1 nM))”. In assay [1], the IC50 is 31.6 to 100 nM. Also, at JAK1, the “JAK1 pKi” value was “A (A represents a pKi value ≥10 (Ki≤0.1 nM))”.
Turning to `CCc1cc(O)ccc1-c1ccc2c(-c3nc(C4=C[C@H](CC(=O)N5CCOCC5)NC4)c[nH]3)n[nH]c2c1F` [Example 361], the “JAK2 pKi” value on JAK2 is recorded as “A (A represents a pKi value ≥10 (Ki≤0.1 nM))”. For the same compound, in assay [1], the IC50 was 31.6 to 100 nM. Further, the Ki at JAK1 is 0.1 to 1 nM.
On the same counts, the results for `CCc1cc(O)ccc1-c1ccc2c(-c3nc(C4=CCN(C(=O)CNCCOC)C4)c[nH]3)n[nH]c2c1F` [Example 362] are “A (A represents a pKi value ≥10 (Ki≤0.1 nM))”, 31.6 to 100 nM and 0.1 to 1 nM.
On to `CCc1cc(O)ccc1-c1ccc2c(-c3nc(C4=CCN(C(=O)CCN(C)C)C4)c[nH]3)n[nH]c2c1F` [Example 363], for which the “JAK2 pKi” value on JAK2 is recorded as “A (A represents a pKi value ≥10 (Ki≤0.1 nM))”. Further, in assay [1], the IC50 is 31.6 to 100 nM. In addition, the Ki on JAK1 is 0.1 to 1 nM.
Consider `CCc1cc(O)ccc1-c1ccc2c(-c3nc(C4=CCN(C(=O)CN(CCO)CCO)C4)c[nH]3)n[nH]c2c1F` [Example 364], for which, at JAK2, the “JAK2 pKi” value is given as “A (A represents a pKi value ≥10 (Ki≤0.1 nM))”. Moreover, in assay [1], the IC50 was 31.6 to 100 nM. In addition, the Ki on JAK1 was 0.1 to 1 nM.
The matching figures for `CCc1cc(O)ccc1-c1ccc2c(-c3nc(C4=CCN(C(=O)CN5CCN(C)CC5)C4)c[nH]3)n[nH]c2c1F` [Example 365]: “A (A represents a pKi value ≥10 (Ki≤0.1 nM))”, 31.6 to 100 nM and 0.1 to 1 nM.
Regarding `CCc1cc(O)ccc1-c1ccc2c(-c3nc(C4=CCNC(C(C)C)C4)c[nH]3)n[nH]c2c1F` (stereo not drawn) [Example 368], the Ki at JAK2 and at JAK1 was 0.1 to 1 nM each time. Further, in assay [1], the IC50 is 31.6 to 100 nM.
Regarding `Oc1ccc(-c2ccc3c(-c4nc(C5=CCNCC5)c[nH]4)n[nH]c3c2)c(CC(F)(F)F)c1` [Example 369], the Ki on JAK2 and at JAK1 was 0.1 to 1 nM each time. The IC50 in assay [1] was 31.6 to 100 nM.
In the case of `CCc1cc(O)ccc1-c1ccc2c(-c3nc(C4=CCNC(C(C)(C)C)C4)c[nH]3)n[nH]c2c1F` (stereo not drawn) [Example 370], the Ki at JAK2 is 0.1 to 1 nM; on JAK1, 1 to 10 nM. The IC50 in assay [1] is 31.6 to 100 nM.
As for `CCc1cc(O)c(C)cc1-c1ccc2c(-c3nc(C4=CCNCC4)c[nH]3)n[nH]c2c1F` [Example 371], the Ki at JAK2 and on JAK1 was 1 to 10 nM throughout. The IC50 in assay [1] was 31.6 to 100 nM.
`CCc1cc(O)ccc1-c1ccc2c(-c3nc(C4=CC(c5ccccc5)NC4)c[nH]3)n[nH]c2c1F` (stereo not drawn) [Example 372]: the Ki at JAK2 and on JAK1 was 1 to 10 nM throughout. The IC50 in assay [1] was 31.6 to 100 nM.
For the compound `CCc1cc(O)ccc1-c1ccc2c(-c3nc(C4=C[C@H](CC(=O)N5CCN(C)CC5)NC4)c[nH]3)n[nH]c2c1F` [Example 373], the “JAK2 pKi” value at JAK2 is “A (A represents a pKi value ≥10 (Ki≤0.1 nM))”. Moreover, the IC50 in assay [1] was 31.6 to 100 nM. Besides, the Ki at JAK1 is 0.1 to 1 nM.
The matching figures for `CCc1cc(O)ccc1-c1ccc2c(-c3nc(C4=CCN(C(=O)COCCN(C)C)C4)c[nH]3)n[nH]c2c1F` [Example 374]: “A (A represents a pKi value ≥10 (Ki≤0.1 nM))”, 31.6 to 100 nM and 0.1 to 1 nM.
On the same counts, the results for `CCc1cc(O)ccc1-c1ccc2c(-c3nc(C4=CCN(C(=O)[C@H](COC)NC)C4)c[nH]3)n[nH]c2c1F` [Example 375] are “A (A represents a pKi value ≥10 (Ki≤0.1 nM))”, 31.6 to 100 nM and 0.1 to 1 nM.
`CCc1cc(O)ccc1-c1ccc2c(-c3nc(C4=CCNC(C)(C)C4)c[nH]3)n[nH]c2c1` [Example 376]: the Ki on JAK2 and on JAK1 was 0.1 to 1 nM each time. Moreover, the IC50 in assay [1] is 31.6 to 100 nM.
As to `CCc1cc(O)ccc1-c1ccc2c(-c3nc(C4=CCNC(C)(C)C4)c[nH]3)n[nH]c2c1F` [Example 377], the Ki on JAK2 and on JAK1 was 0.1 to 1 nM in each case. Also, the IC50 in assay [1] was 31.6 to 100 nM.
As to `Oc1ccc(-c2ccc3c(-c4nc(C5=CCNC5)c[nH]4)n[nH]c3c2)c(CC(F)(F)F)c1` [Example 378], the Ki at JAK2 and on JAK1 was 0.1 to 1 nM throughout. The IC50 in assay [1] was 31.6 to 100 nM.
For the compound `CCc1cc(O)ccc1-c1ccc2c(-c3nc(C4=C(C(=O)N(C)C)CNCC4)c[nH]3)n[nH]c2c1F` [Example 379], at JAK2, the “JAK2 pKi” value is recorded as “A (A represents a pKi value ≥10 (Ki≤0.1 nM))”. Besides, the IC50 in assay [1] was 31.6 to 100 nM. Moreover, at JAK1, the Ki was 0.1 to 1 nM.
For the compound `CCc1cc(O)ccc1-c1ccc2c(-c3nc(C4=CCN(C(=O)CCNC)C4)c[nH]3)n[nH]c2c1F` [Example 380], the “JAK2 pKi” value at JAK2 is “A (A represents a pKi value ≥10 (Ki≤0.1 nM))”. The IC50 in assay [1] was 31.6 to 100 nM. On JAK1, the Ki is 0.1 to 1 nM.
On the same counts, the results for `CCc1cc(O)ccc1-c1ccc2c(-c3nc(C4=CCN(C(=O)CCNCCOC)C4)c[nH]3)n[nH]c2c1F` [Example 381] are “A (A represents a pKi value ≥10 (Ki≤0.1 nM))”, 31.6 to 100 nM and 0.1 to 1 nM.
On the same counts, the results for `CCc1cc(O)ccc1-c1ccc2c(-c3nc(C4=CCN(C(=O)[C@H](CO)NC)C4)c[nH]3)n[nH]c2c1F` [Example 385] are “A (A represents a pKi value ≥10 (Ki≤0.1 nM))”, 31.6 to 100 nM and 0.1 to 1 nM.
As for `CCc1cc(O)ccc1-c1ccc2c(-c3nc(C4=CCN[C@H](CO)C4)c[nH]3)n[nH]c2c1F` [Example 386], the Ki at JAK2 and on JAK1 was 0.1 to 1 nM in each case. For the same compound, in assay [1], the “BEAS2B pIC50” value is “C (C represents a pIC50 value between 7 (included) and 7.5)”.
In the case of `Oc1ccc(-c2ccc3c(-c4nc(C5=CCNCC5)c[nH]4)n[nH]c3c2F)c(CC(F)(F)F)c1` [Example 387], the Ki was 0.1 to 1 nM on JAK2 and 1 to 10 nM at JAK1. Besides, the IC50 in assay [1] is 31.6 to 100 nM.
The matching figures for `CCc1cc(O)ccc1-c1ccc2c(-c3nc(C4=CC(C(C)C)NC4)c[nH]3)n[nH]c2c1F` (stereo not drawn) [Example 388]: 1 to 10 nM, 1 to 10 nM and 31.6 to 100 nM.
Consider `CCc1cc(O)ccc1-c1ccc2c(-c3nc(C4=CCN(C(=O)COCCNCCOC)C4)c[nH]3)n[nH]c2c1F` [Example 389], for which the “JAK2 pKi” value at JAK2 was “A (A represents a pKi value ≥10 (Ki≤0.1 nM))”. Moreover, the IC50 in assay [1] is 100 to 316 nM. The Ki at JAK1 is 0.1 to 1 nM.
As for `CCc1cc(O)ccc1-c1ccc2c(-c3nc(C4=CCN([C@H]5CC[C@](O)(C(F)(F)F)CC5)C4)c[nH]3)n[nH]c2c1F` [Example 391], the Ki at JAK2 and on JAK1 was 0.1 to 1 nM throughout. Besides, in assay [1], the IC50 was 100 to 316 nM.
For the compound `CCc1cc(O)ccc1-c1ccc2c(-c3nc(C4=CCN[C@H](CO)C4)c[nH]3)n[nH]c2c1F` [Example 392], the “JAK2 pKi” value on JAK2 is “B (B represents a pKi value between 9 (included) and 10 (Ki between 1 nM and 0.1 nM))”. For the same compound, in assay [1], the “BEAS2B pIC50” value is “D (D represents a pIC50 value between 6.5 (included) and 7)”. The “JAK1 pKi” value on JAK1 is “B (B represents a pKi value between 9 (included) and 10 (Ki between 1 nM and 0.1 nM))”.
As to `CCc1cc(O)ccc1-c1ccc2c(-c3nc(C4=CCN(CCS(=O)(=O)NC)C4)c[nH]3)n[nH]c2c1F` [Example 393], the Ki on JAK2 and on JAK1 was 0.1 to 1 nM throughout. Moreover, the IC50 in assay [1] was 100 to 316 nM.

Source of the values: patent US20240092758A1, “IMIDAZOLO INDAZOLE COMPOUNDS AS JAK INHIBITORS” (Theravance Biopharma R&D IP, LLC, priority 2021, published 2024).
